{
  "source": "patent US20120010272A1",
  "about": "“RNA Interference Mediated Inhibition of Apoptosis Signal-Regulating Kinase 1 (ASK1) Gene Expression Using Short Interfering Nucleic Acid (siNA)” (Merck Sharp & Dohme Corp., priority 2009, published 2012)",
  "assay_type_in_all_cases": "cell-based",
  "key": {"ASK1 mRNA [1]": {"test_system": "ASK1 mRNA", "test": "ASK1 mRNA knock-down by siNA in human A549 cells (RNAiMax transfection, Taqman RT-PCR)", "procedure": "A549 (human; ATCC cat #CCL-185): Cells were cultured at 37° C. in the presence of 5% CO2 and grown in Ham's F12K medium with 2 mM L-glutamine adjusted to contain 1.5 g/L sodium bicarbonate and supplemented with fetal bovine serum at a final concentration of 10%, 100 μg/mL of streptomycin, and 100 U/mL penicillin.\n(§1) Cells were plated in all wells of a tissue-culture treated, 96-well plate at a final count of 5000 cells/well (A549 cell line) and 3,500 cells/well (Hepal-6 cell line) in 100 μL of the appropriate culture media. The cells were cultured for 24 hours after plating at 37° C. in the presence of 5% CO2.\n(§2) After 24 hours, complexes containing siNA and RNAiMax were created as follows: A solution of RNAiMax diluted 33-fold in OPTI-MEM was prepared. In parallel, solutions of the siNAs for testing were prepared to a final concentration of 120 nM in OPTI-MEM. After incubation of RNAiMax/OPTI-MEM solution at room temperature for 5 min, an equal volume of the siRNA solution and the RNAiMax solution were added together for each of the siNAs.\n(§3) This solution was incubated at room temperature for 20 minutes. After incubation, 20 uL of the solution was added to each of the relevant wells. The final concentration of siNA in each well was 10 nM and the final volume of RNAiMax in each well was 0.3 ul.\n(§4) The time of incubation with the RNAiMax-siNA complexes was 24 hours and there was no change in media between transfection and harvesting, unless otherwise indicated.\n(§5) RNA was extracted from a 96-well plate using the TaqMan® Gene Expression Cells-to-CT™ Kit (Cat #4399002) with a modified protocol. Briefly, a 60 uL (1 plate) or 110 uL (2 plates) of the Lysis Solution with DNase I was dispensed into each well of the Lysis Buffer Plate (twin.tec full skirt plate). The lysis buffer and stop plates were stored at 4° C. until the cells were washed.\n(§6) The plate was spun at 1100 rpm for 5 minutes. The culture medium was aspirated and discarded from the wells of the culture plate. The lysis was performed automatically using a BioMek FX instrument and method. After the Biomek method was completed, the lysis plate was incubated for 2 min. at room temperature. The lysis plate can be stored for 2 hours at 4° C., or at −20° C. or −80° C. for two months.\n(§7) Each well of the reverse transcription plate required 10 uL of 2× reverse transcriptase Buffer, 1 uL of 20× reverse transcription enzyme and 2 uL of nuclease-free water. The reverse transcription master mix was prepared by mixing 2× reverse transcription buffer, 20× reverse transcription enzyme mix, and nuclease-free water. 13 uL of the reverse transcription master mix was dispensed into each well of the reverse transcription plate (semi-skirted). A separate reverse transcription plate was prepared for each cell plate. The plate was loaded onto a Biomek NX or Biomek FX Dual-96 and the Biomek method was run. The program is programmed to automatically added 7 uL of lysate from the cell lysis procedure described above into each well of the reverse transcription plate. The plate is sealed and spun on a centrifuge (1000 rpm for 30 seconds) to settle the contents to the bottom of the reverse transcription plate. The plate is placed in a thermocycler at 37° C. for 60 min, 95° C. for 5 min, and 4° C. until the plate is removed from the thermocycler. Upon removal, if not used immediately, the plate was frozen at −20° C.\n(§8) A series of probes and primers were used to detect the various mRNA transcripts of the genes of ASK1, ASK2, and GAPDH in human cell lines and ASK1 and GAPDH in mouse cell lines. All Taqman probes and primers for the experiments were supplied as pre-validated sets by ABI (see Table 2).\n(§9) The assays were performed on an ABI 7900 instrument, according to the manufacturer's instructions. A TaqMan Gene Expression Master Mix (provided in the Cells-to-CT™, Applied Biosystems, Cat #4399002) was used. […]"}, "ASK1 mRNA [2]": {"test_system": "ASK1 mRNA", "test": "ASK1 mRNA knock-down by siNA in mouse Hepa1-6 cells (RNAiMax transfection, Taqman RT-PCR)", "details": "10 nM siNA, 24 hrs post-transfection, vs non-targeting control, GAPDH-normalized, mean ± S.D., two experiments", "procedure": "Hepal-6 (murine; ATCC cat #CRL-1830): Cells were cultured at 37° C. in the presence of 5% CO2 and grown in Dulbecco's modified Eagle's medium (DMEM) with 4 mM L-glutamine adjusted to contain 1.5 g/L sodium bicarbonate and 4.5 g/L glucose and supplemented with 10% of fetal bovine serum, 100 μg/mL of streptomycin, and 100 U/mL penicillin.\nas §1, §2, §3, §4, §5, §6, §7, §8, §9"}, "[3]": {"test_system": "mRNA transcript of human ASK2", "test": "ASK2 specificity screen: effect of ASK1 siNAs on human ASK2 mRNA in A549 cells", "details": "1 nM siNA, three independent experiments, mean ± standard deviation", "procedure": "A549 cells were plated in all wells of a tissue-culture treated, 96-well plate at a final count of 5,000 cells/well in 100 μL of appropriate culture media. Cells were cultured for 24 hours after plating at 37° C. in the presence of 5% CO2.\nas §2, with “follows.” for “follows:”, “siRNAs” for “siNAs”, “12” for “120”, “siNA” for “siRNA”, “siNAs. […] This solution was incubated at room temperature for 20 minutes. After incubation, 20 uL of the solution was added to each of the relevant wells. The final concentration of siNA in each well was 1 nM and the final volume of RNAiMax in each well was 0.3 uL. The time of incubation with the RNAiMax-siNA complexes was 24 hours.” for “siNAs.”\nas §5, §6, §7, §8\nThe assays were performed on an ABI 7900 instrument, according to the manufacturer's instructions. A TaqMan Gene Expression Master Mix (provided in the Cells-to-CT™, Applied Biosystems, Cat #4399002) was used. The PCR reactions were carried out at 50° C. for 2 min, 95° C. for 10 min followed by 40 cycles at 95° C. for 15 secs and 60° C. for 1 min.\nThe expression level of the gene of interest and % knock-down was calculated using Comparative Ct method:\nΔΔCt=ΔCt(Target siRNA)−ΔCt(NTC)\nRelative expression level=2^−ΔΔCt\nThe non-targeting control siRNA was, unless otherwise indicated, chosen as the value against which to calculate the % knock-down, because it is the most relevant control.\nThe specificity of these siNAs was also assessed. […]"}, "ASK1 mRNA [4]": {"test_system": "ASK1 mRNA", "test": "ASK1 mRNA knock-down by siNA in human A549 cells (RNAiMax transfection, Taqman RT-PCR)", "details": "12 concentrations 0.083 fM to 30 nM, mean ± S.D."}},
  "note": "[invAb] = inverted abasic unit; m = 2'-O-methyl; r = 2'-OH (RNA); f = 2'-fluoro",
  "data": [
    {"substance": "25399-DC: siNA duplex, sense B ccAAcAcuAcAGucAGGAA TTB, antisense UUCcuGAcuGuAGuGuuGGUU (SEQ ID NO: 79/80), human ASK1 target site 1640 (sense CCAACACUACAGUCAGGAATT; antisense UUCCUGACUGUAGUGUUGGUU; sense: DNA at AGT, 2'-fluoro at CU, [invAb] at 5' end, 3' end, backbone not given here; antisense: sugars from the 5' end rrrffmmffmfmmfmffmmmm, backbone not given here)", "values": [
      {"measurement": "% KD Human", "setting": "ASK1 mRNA [1]; 10 nM siNA, 24 hrs post-transfection, vs non-targeting control, GAPDH-normalized, mean ± S.D., two experiments", "value": "81 ± 2", "unit": "%"},
      {"measurement": "% KD ASK-1 mRNA at 10 nM", "setting": "ASK1 mRNA [1]; 10 nM, mean ± S.D. (Table 5)", "value": "81 ± 2", "unit": "%"},
      {"measurement": "% KD ASK-1 10 nM", "setting": "ASK1 mRNA [1]; 10 nM, two experiments, mean ± standard deviation (Table 6)", "value": "81 ± 2", "unit": "%"},
      {"measurement": "% KD Mouse", "setting": "ASK1 mRNA [2]", "value": "62 ± 0", "unit": "%"},
      {"measurement": "% KD ASK-2 1 nM", "setting": "[3]", "value": "9 ± 8", "unit": "%"},
      {"measurement": "IC50", "setting": "ASK1 mRNA [4]", "value": "150 ± 43", "unit": "pM"}
    ]}
  ]
}
